Results as given in article doi:10.1101/2024.12.30.630793 (bioRxiv, 2024).
Like-named read-outs stand apart in the source and are kept apart here.

How the values were obtained:
Acb4 (SPO1 Acb4) = biological target: T1, Acb4 (SPO1 Acb4) (Bacillus phage SPO1, UniProt B6V2Y3); assay: Electrophoretic mobility shift assay: titration of recombinant Acb4 with 20 nM alpha-32P-radiolabelled cyclic dinucleotide, 50 mM Tris-HCl pH 7.5, 5 mM MgCl2, 10 mM KCl, 1 mM TCEP, 30 min on ice, nondenaturing 6% PAGE, fraction bound fitted to a single binding model.; settings: n = 2
T1 construct: gene 1.3; recombinant from E. coli BL21(DE3)-RIL, N-terminal 6xHis-SUMO2 fusion, tag cleaved with SENP2; 96 amino acids, homotetramer
T1 sequence (B6V2Y3 1-96): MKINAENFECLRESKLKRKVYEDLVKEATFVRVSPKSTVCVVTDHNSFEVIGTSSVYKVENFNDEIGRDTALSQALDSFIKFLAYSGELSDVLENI

Bacillus phage SPO1 Acb4 = type: binding; settings: for Kd: fraction bound fit to a single binding model, n = 2
[1] = biological target: Bacillus phage SPO1 anti-CBASS 4 (Acb4) (Bacillus phage SPO1); assay: SEC-MALS; recombinant apo SPO1 Acb4 in solution; complex migrates at ~42.3 kDa

| Compound | Kd (Acb4 (SPO1 Acb4)) | Kd (Bacillus phage SPO1 Acb4) | interaction with Acb4 (EMSA) (Bacillus phage SPO1 Acb4) | other results |
| --- | --- | --- | --- | --- |
| Nc1ncnc2c1ncn2[C@@H]1O[C@@H]2COP(=O)(O)O[C@H]3[C@@H](O)[C@H](n4ccc(=O)[nH]c4=O)O[C@@H]3COP(=O)(O)O[C@H]2[C@H]1O [3′3′-cUA, 3′3′-cyclic UMP-AMP, c[U(3′,5′)pA(3′,5′)p]] | 262 nM | – | – | – |
| Nc1nc2c(ncn2[C@@H]2O[C@@H]3COP(=O)(O)O[C@H]4[C@@H](O)[C@H](n5cnc6c(N)ncnc65)O[C@@H]4COP(=O)(O)O[C@H]3[C@H]2O)c(=O)[nH]1 [3′3′-cGAMP, 3′3′-cyclic GMP-AMP, c[G(3′,5′)pA(3′,5′)p]] | 157 nM | – | – | – |
| Nc1nc2c(ncn2[C@@H]2O[C@@H]3COP(=O)(O)O[C@H]4[C@@H](O)[C@H](n5cnc6c(N)ncnc65)O[C@@H]4COP(=O)(O)O[C@H]3[C@H]2O)c(=O)[nH]1 [3′3′-cGAMP, 3′3′-cyclic GMP-AMP] | – | ~157 nM | – | Kd (Bacillus phage SPO1 Acb4; listed as 3'3'-cGAMP): 157 nM |
| Bacillus phage SPO1 anti-CBASS 4 (Acb4) (natural protein) | – | – | – | stoichiometry N [1]: 4 |
| Nc1ncnc2c1ncn2[C@@H]1O[C@@H]2COP(=O)(O)O[C@@H]3[C@H](O)[C@@H](COP(=O)(O)O[C@H]2[C@H]1O)O[C@H]3n1ccc(=O)[nH]c1=O [2′3′-cUA] | – | 641 nM | recognizes | – |
| Nc1ncnc2c1ncn2[C@@H]1O[C@@H]2COP(=O)(O)O[C@H]3[C@@H](O)[C@H](n4ccc(=O)[nH]c4=O)O[C@@H]3COP(=O)(O)O[C@H]2[C@H]1O [3′3′-cUA] | – | 262 nM | recognizes | – |
| Nc1ncnc2c1ncn2[C@@H]1O[C@@H]2COP(=O)(O)O[C@H]3[C@@H](O)[C@H](n4cnc5c(N)ncnc54)O[C@@H]3COP(=O)(O)O[C@H]2[C@H]1O [3′3′-cAA, 3′3′-c-di-AMP] | – | – | No interaction was detected | – |
| Nc1nc2c(ncn2[C@@H]2O[C@@H]3COP(=O)(O)O[C@H]4[C@@H](O)[C@H](n5cnc6c(=O)[nH]c(N)nc65)O[C@@H]4COP(=O)(O)O[C@H]3[C@H]2O)c(=O)[nH]1 [3′3′-cGG, 3′3′-c-di-GMP] | – | – | No interaction was detected | – |
| Nc1ncnc2c1ncn2[C@@H]1O[C@@H]2COP(=O)(O)O[C@@H]3[C@H](O)[C@@H](COP(=O)(O)O[C@H]2[C@H]1O)O[C@H]3n1ccc(=O)[nH]c1=O [2′3′-cUA, 2′3′-cyclic UMP-AMP, c[U(2′,5′)pA(3′,5′)p]] | 641 nM | – | – | – |
